Where a name gives a salt, the structure may show the parent alone. Read-outs that look alike come from different tables or passages of the source.
How the values were obtained:
[1] = molecular target: PI3Kγ (p110γ) Recombinant Human Protein (Homo sapiens (Human), UniProt P48736); assay: PI3K-γ Scintillation Proximity Assay; type: biochemical; details: read-out: PI3Kγ IC50
Method in brief: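 Radiometric SPA readout: […] bound to WGA beads after overnight shaking, IC50 derived from % activity of DMSO control. Reaction used human p110γ, 2 μM ATP, 20 μM PIP2, pH 6.7 MOPS buffer with MgCl2, DTT, CHAPS, 2% DMSO, room temperature.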

[2] = molecular target: PI3Kδ (p110δ/p85α) Recombinant Human Protein (Homo sapiens (Human), UniProt O00329); assay: PI3Kδ Scintillation Proximity Assay; type: biochemical
Chain of PI3Kδ (p110δ/p85α) Recombinant Human Protein (O00329 whole entry): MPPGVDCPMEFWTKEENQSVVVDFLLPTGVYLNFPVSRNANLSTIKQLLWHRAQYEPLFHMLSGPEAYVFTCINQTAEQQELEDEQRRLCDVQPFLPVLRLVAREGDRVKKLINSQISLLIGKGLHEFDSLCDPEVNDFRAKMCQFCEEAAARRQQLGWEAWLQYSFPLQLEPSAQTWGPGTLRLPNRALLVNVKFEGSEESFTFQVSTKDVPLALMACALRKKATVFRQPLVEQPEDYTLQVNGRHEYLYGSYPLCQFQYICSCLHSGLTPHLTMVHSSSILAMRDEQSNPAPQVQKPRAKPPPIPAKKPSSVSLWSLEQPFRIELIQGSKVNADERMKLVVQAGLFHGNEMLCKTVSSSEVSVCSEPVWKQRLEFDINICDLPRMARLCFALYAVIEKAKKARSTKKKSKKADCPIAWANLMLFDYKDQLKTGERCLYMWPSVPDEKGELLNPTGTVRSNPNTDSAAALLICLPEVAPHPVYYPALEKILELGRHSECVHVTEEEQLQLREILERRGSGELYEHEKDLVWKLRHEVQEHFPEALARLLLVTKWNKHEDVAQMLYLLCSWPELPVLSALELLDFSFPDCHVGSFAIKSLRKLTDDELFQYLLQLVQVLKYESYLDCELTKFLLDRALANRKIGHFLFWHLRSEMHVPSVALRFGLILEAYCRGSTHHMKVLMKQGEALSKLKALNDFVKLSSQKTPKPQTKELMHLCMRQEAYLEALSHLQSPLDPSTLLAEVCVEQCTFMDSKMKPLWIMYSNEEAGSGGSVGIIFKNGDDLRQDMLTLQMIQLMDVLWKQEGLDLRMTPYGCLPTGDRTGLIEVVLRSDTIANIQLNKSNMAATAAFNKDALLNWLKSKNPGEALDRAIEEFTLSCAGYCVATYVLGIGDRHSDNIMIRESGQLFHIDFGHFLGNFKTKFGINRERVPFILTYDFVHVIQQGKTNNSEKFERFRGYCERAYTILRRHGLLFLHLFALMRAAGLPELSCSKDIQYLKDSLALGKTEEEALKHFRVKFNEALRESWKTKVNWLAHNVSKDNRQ
Chain of PI3Kδ (p110δ/p85α) Recombinant Human Protein (P27986 whole entry partner): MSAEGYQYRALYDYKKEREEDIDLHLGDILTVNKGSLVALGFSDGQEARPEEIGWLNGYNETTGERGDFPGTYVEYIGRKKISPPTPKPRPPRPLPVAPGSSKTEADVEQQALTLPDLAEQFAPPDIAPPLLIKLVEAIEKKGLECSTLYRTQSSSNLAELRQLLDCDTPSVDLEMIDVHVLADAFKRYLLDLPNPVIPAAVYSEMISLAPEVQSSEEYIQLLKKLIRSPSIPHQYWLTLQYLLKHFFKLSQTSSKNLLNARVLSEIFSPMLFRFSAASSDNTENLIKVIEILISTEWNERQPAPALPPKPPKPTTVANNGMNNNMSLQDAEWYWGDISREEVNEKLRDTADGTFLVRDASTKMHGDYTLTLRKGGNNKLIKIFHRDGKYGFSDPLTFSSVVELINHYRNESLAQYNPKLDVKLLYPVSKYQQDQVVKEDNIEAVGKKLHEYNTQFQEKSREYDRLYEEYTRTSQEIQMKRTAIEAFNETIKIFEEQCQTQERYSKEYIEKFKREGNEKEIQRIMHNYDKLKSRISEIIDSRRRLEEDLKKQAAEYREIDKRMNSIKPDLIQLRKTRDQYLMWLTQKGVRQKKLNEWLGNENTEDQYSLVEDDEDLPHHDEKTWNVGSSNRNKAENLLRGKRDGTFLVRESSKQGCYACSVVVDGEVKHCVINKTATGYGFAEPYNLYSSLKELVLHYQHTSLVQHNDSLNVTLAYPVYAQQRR
Method in brief: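 Assay conditions: 2 μM ATP (radiolabelled), 20 μM PIP2, 3.4 nM PI3Kδ, 20 mM MOPS pH 6.7 with 10 mM MgCl2, 5 mM DTT, 0.03% CHAPS, 2 h at room temperature. Signal from bead-captured 33P product; IC50 versus solvent control.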

[3] = tested on: Phosphorylated Ribosomal Protein S6 (RPS6); assay: THP-1 RPS6 ELISA Assay; type: cell-based, Human; details: THP-1 cells, read-out: PI3Kγ_THP1_RPS6_ELISA IC50
Method in brief: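 IC50 values come from a curve of percent inhibition against log compound concentration, using phospho-RPS6 ELISA (450 nm) on THP-1 lysates. Cells were serum-starved overnight, exposed to compound for 2 h at 37 °C, then challenged 15 min with 10 nM MCP-1.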

Chain of PI3Kγ (p110γ) Recombinant Human Protein (P48736 whole entry): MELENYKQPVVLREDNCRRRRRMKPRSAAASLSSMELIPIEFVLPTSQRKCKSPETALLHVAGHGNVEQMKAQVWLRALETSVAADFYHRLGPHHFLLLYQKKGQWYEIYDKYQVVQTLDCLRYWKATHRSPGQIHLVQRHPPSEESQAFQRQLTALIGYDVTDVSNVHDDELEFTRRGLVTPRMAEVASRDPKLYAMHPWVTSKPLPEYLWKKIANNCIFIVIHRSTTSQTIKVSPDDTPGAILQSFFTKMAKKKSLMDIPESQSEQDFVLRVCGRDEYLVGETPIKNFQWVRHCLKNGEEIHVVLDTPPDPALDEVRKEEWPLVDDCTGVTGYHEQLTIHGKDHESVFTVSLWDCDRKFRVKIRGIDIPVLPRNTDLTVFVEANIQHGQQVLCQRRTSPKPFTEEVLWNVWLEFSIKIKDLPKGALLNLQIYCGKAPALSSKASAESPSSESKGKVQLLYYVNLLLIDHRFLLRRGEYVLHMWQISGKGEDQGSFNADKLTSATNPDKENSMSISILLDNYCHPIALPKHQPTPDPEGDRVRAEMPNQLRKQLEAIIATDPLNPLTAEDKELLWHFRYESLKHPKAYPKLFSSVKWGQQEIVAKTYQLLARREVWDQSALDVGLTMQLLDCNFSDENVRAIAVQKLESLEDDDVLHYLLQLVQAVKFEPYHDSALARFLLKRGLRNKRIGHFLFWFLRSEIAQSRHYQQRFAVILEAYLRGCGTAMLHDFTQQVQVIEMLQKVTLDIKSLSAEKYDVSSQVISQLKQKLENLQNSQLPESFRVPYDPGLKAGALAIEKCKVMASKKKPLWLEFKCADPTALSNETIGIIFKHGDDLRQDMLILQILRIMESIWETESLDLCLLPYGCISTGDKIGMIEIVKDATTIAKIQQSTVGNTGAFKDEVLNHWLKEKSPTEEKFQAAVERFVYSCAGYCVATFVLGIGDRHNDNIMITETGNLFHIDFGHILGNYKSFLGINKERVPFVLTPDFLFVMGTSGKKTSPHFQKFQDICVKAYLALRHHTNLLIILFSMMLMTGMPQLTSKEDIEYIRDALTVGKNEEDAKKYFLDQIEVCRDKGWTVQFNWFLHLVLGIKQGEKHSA

SMILES | IC50 [1] | IC50 [2] | IC50 [3] | IC50 ([3]; Homo sapiens)
Cc1ccc(S(=O)(=O)NC2CN(CCO)C2)cc1-c1cnc2c(N)nc(C(F)(F)F)nn12 [Example 329, 3-(4-Amino-2-(trifluoromethyl)imidazo[1,2-f][1,2,4]triazin-7-yl)-N-(1-(2-hydroxyethyl)azetidin-3-yl)-4-methylbenzenesulfonamide trifluoroacetate salt] | < 100 nM | 100 to 500 nM | 100 to 500 nM | 
Cc1ccc(S(=O)(=O)NC23CC(C#N)(C2)C3)cc1-c1cnc2c(N)nc(C(F)(F)F)nn12 [Example 330, 3-(4-Amino-2-(trifluoromethyl)imidazo[1,2-f][1,2,4]triazin-7-yl)-N-(3-cyanobicyclo[1.1.1]pentan-1-yl)-4-methylbenzenesulfonamide trifluoroacetate salt] | < 100 nM | < 100 nM | < 100 nM | 
Cc1ccc(S(=O)(=O)NC23CC(CF)(C2)C3)cc1-c1cnc2c(N)nc(C(F)(F)F)nn12 [Example 331, 3-(4-Amino-2-(trifluoromethyl)imidazo[1,2-f][1,2,4]triazin-7-yl)-N-(3-(fluoromethyl)bicyclo[1.1.1]pentan-1-yl)-4-methylbenzenesulfonamide trifluoroacetate salt] | < 100 nM | 100 to 500 nM | 100 to 500 nM | 
Cc1ccc(S(=O)(=O)NC23CC(Cn4cccn4)(C2)C3)cc1-c1cnc2c(N)nc(C(F)(F)F)nn12 [Example 332, N-(3-((1H-pyrazol-1-yl)methyl)bicyclo[1.1.1]pentan-1-yl)-3-(4-amino-2-(trifluoromethyl)imidazo[1,2-f][1,2,4]triazin-7-yl)-4-methylbenzenesulfonamide trifluoroacetate salt] | < 100 nM | 100 to 500 nM | < 100 nM | 
Cc1ccc(S(=O)(=O)NC23CC(F)(C2)C3)cc1-c1cnc2c(N)nc(C(F)(F)F)nn12 [Example 333, 3-(4-Amino-2-(trifluoromethyl)imidazo[1,2-f][1,2,4]triazin-7-yl)-N-(3-fluorobicyclo[1.1.1]pentan-1-yl)-4-methylbenzenesulfonamide trifluoroacetate salt] | < 100 nM | 100 to 500 nM | < 100 nM | 
Cc1ccc(S(=O)(=O)NCC2(CO)CCOCC2)cc1-c1cnc2c(N)nc(C(F)(F)F)nn12 [Example 334, 3-(4-Amino-2-(trifluoromethyl)imidazo[1,2-f][1,2,4]triazin-7-yl)-N-((4-(hydroxymethyptetrahydro-2H-pyran-4-yl)methyl)-4-methylbenzenesulfonamide trifluoroacetate salt] | < 100 nM | 100 to 500 nM | < 100 nM | 
Cc1ccc(S(=O)(=O)NCC2(O)CNC2)cc1-c1cnc2c(N)nc(C(F)(F)F)nn12 [Example 335, 3-(4-Amino-2-(trifluoromethyl)imidazo[1,2-f][1,2,4]triazin-7-yl)-N-((3-hydroxyazetidin-3-yl)methyl)-4-methylbenzenesulfonamide trifluoroacetate salt] | < 100 nM | 100 to 500 nM | 100 to 500 nM | 
Cc1ccc(S(N)(=O)=O)cc1-c1cnc2c(N)nc(C(F)(F)F)nn12 [Example 336, 3-(4-Amino-2-(trifluoromethyl)imidazo[1,2-f][1,2,4]triazin-7-yl)-4-methylbenzenesulfonamide trifluoroacetate salt] | < 100 nM | 100 to 500 nM | 100 to 500 nM | 
Cc1ccc(S(=O)(=O)NC2CN(C3COC3)C2)cc1-c1cnc2c(N)nc(C(F)(F)F)nn12 [Example 337, 3-(4-Amino-2-(trifluoromethyl)imidazo[1,2-f][1,2,4]triazin-7-yl)-4-methyl-N-(1-(oxetan-3-yl)azetidin-3-yl)benzenesulfonamide trifluoroacetate salt] | < 100 nM | 100 to 500 nM | 100 to 500 nM | 
Cc1ccc(S(=O)(=O)NC23CC(Cn4cncn4)(C2)C3)cc1-c1cnc2c(N)nc(C(F)(F)F)nn12 [Example 338, N-(3-((1H-1,2,4-triazol-1-yl)methyl)bicyclo[1.1.1]pentan-1-yl)-3-(4-amino-2-(trifluoromethyl)imidazo[1,2-f][1,2,4]triazin-7-yl)-4-methylbenzenesulfonamide] | < 100 nM | 100 to 500 nM | 100 to 500 nM | 
Cc1ccc(S(=O)(=O)NC23CC(C(F)F)(C2)C3)cc1-c1cnc2c(N)nc(C(F)(F)F)nn12 [Example 339, 3-(4-Amino-2-(trifluoromethyl)imidazo[1,2-f][1,2,4]triazin-7-yl)-N-(3-(difluoromethyl)bicyclo[1.1.1]pentan-1-yl)-4-methylbenzenesulfonamide trifluoroacetate salt] | < 100 nM | 100 to 500 nM | 100 to 500 nM | 
Cc1ccc(S(=O)(=O)NC23CC(N4CCOCC4)(C2)C3)cc1-c1cnc2c(N)nc(C(F)(F)F)nn12 [Example 340, 3-(4-Amino-2-(trifluoromethyl)imidazo[1,2-f][1,2,4]triazin-7-yl)-4-methyl-N-(3-morpholinobicyclo[1.1.1]pentan-1-yl)benzenesulfonamide trifluoroacetate salt] | < 100 nM | 100 to 500 nM | 100 to 500 nM | 
Cc1ccc(S(=O)(=O)NC23CC(N)(C2)C3)cc1-c1cnc2c(N)nc(C(F)(F)F)nn12 [Example 341, 3-(4-Amino-2-(trifluoromethyl)imidazo[1,2-f][1,2,4]triazin-7-yl)-N-(3-aminobicyclo[1.1.1]pentan-1-yl)-4-methylbenzenesulfonamide trifluoroacetate salt] | < 100 nM | 100 to 500 nM | 100 to 500 nM | 
Cc1ccc(S(=O)(=O)N2CC(O)(C3CC3)C2)cc1-c1cnc2c(N)nc(C(F)(F)F)nn12 [Example 342, 1-((3-(4-amino-2-(trifluoromethyl)imidazo[2,1-1,2,4]triazin-7-yl)-4-methylphenyl)sulfonyl)-3-cyclopropylazetidin-3-ol TFA] | < 100 nM | 100 to 500 nM | 100 to 500 nM | 
Cc1ccc(S(=O)(=O)N2CC3(CC(O)C3)C2)cc1-c1cnc2c(N)nc(C(F)(F)F)nn12 [Example 343, 2-((3-(4-amino-2-(trifluoromethyl)imidazo[2,1-f][1,2,4]triazin-7-yl)-4-methylphenyl)sulfonyl)-2-azaspiro[3.3]heptan-6-ol TFA] | < 100 nM | < 100 nM |  | < 100 nM
Cc1ccc(S(=O)(=O)N(C)CCC#N)cc1-c1cnc2c(N)nc(C(F)(F)F)nn12 [Example 344, 3-(4-amino-2-(trifluoromethyl)imidazo[2,1-f][1,2,4]triazin-7-yl)-N-(2-cyanoethyl)-N,4-dimethylbenzenesulfonamide] | < 100 nM | < 100 nM |  | 100 to 500 nM
Cc1ccc(S(=O)(=O)N(CCC#N)C2CC2)cc1-c1cnc2c(N)nc(C(F)(F)F)nn12 [Example 345, 3-(4-amino-2-(trifluoromethyl)imidazo[2,1-f][1,2,4]triazin-7-yl)-N-(2-cyanoethyl)-N-cyclopropyl-4-methylbenzenesulfonamide] | < 100 nM | 100 to 500 nM |  | > 1000 nM
Cc1ccc(S(=O)(=O)N(CCC#N)C2CCCC2)cc1-c1cnc2c(N)nc(C(F)(F)F)nn12 [Example 346, 3-(4-amino-2-(trifluoromethyl)imidazo[2,1-f][1,2,4]triazin-7-yl)-N-(2-cyanoethyl)-N-cyclopentyl-4-methylbenzenesulfonamide] | < 100 nM | 100 to 500 nM |  | 100 to 500 nM
Cc1ccc(S(=O)(=O)N2CCC[C@H]2CO)cc1-c1cnc2c(N)nc(C(F)(F)F)nn12 [Example 347, (S)-(1-((3-(4-amino-2-(trifluoromethyl)imidazo[2,1-f][1,2,4]triazin-7-yl)-4-methylphenyl)sulfonyl)pyrrolidin-2-yl)methanol] | < 100 nM | 100 to 500 nM |  | < 100 nM
Cc1ccc(S(=O)(=O)N2CC3(CCN(C)C3=O)C2)cc1-c1cnc2c(N)nc(C(F)(F)F)nn12 [Example 348, 2-((3-(4-amino-2-(trifluoromethyl)imidazo[2,1-f][1,2,4]triazin-7-yl)-4-methylphenyl)sulfonyl)-6-methyl-2,6-diazaspiro[3.4]octan-5-one] | < 100 nM | < 100 nM |  | 100 to 500 nM
Cc1ccc(S(=O)(=O)N2CC3C(O)C2CN3C2CCCC2C#N)cc1-c1cnc2c(N)nc(C(F)(F)F)nn12 (stereo not drawn) [Example 353, 2-(5-((3-(4-amino-2-(trifluoromethyl)imidazo[2,1-f][1,2,4]triazin-7-yl)-4-methylphenyl)sulfonyl)-7-hydroxy-2,5-diazabicyclo[2.2.1]heptan-2-yl)cyclopentane-1-carbonitrile] | < 100 nM | 500 to 2000 nM |  | > 1000 nM
Cc1ccc(S(=O)(=O)N2CC3C(O)C2CN3C2CC(C#N)C2)cc1-c1cnc2c(N)nc(C(F)(F)F)nn12 (stereo not drawn) [Example 354, 3-(5-((3-(4-amino-2-(trifluoromethyl)imidazo[2,1-f][1,2,4]triazin-7-yl)-4-methylphenyl)sulfonyl)-7-hydroxy-2,5-diazabicyclo[2.2.1]heptan-2-yl)cyclobutane-1-carbonitrile] | < 100 nM | 500 to 2000 nM |  | > 1000 nM

Reference: US10479795B2 (Incyte Corporation, priority 2016, dated 2019)
